Measured values published in US20150038545A1, “HYDROXYPHENYL PYRROLE COMPOUNDS CONTAINING AN HYDROXAMIC ACID AS HDAC INHIBITORS AND MEDICINAL APPLICATIONS THEREOF” (UNIVERSIDAD DEL PAÍS VASCO, priority 2011, published 2015).

What was measured:
Human HDAC9 = target: T1, Human HDAC9 (Homo sapiens, UniProt Q9UKV0); assay: In vitro HDAC9 inhibition, fluorogenic peptide assay; assay type: biochemical; conditions: for IC50: read-out: IC50 (nM) of enzyme activity HDAC9
T1 construct: Amino acids 604-1066 with C-terminal His tag, MW=50.7 kDa; His (C); purchased BioMol, Hamburg, Germany
T1 sequence (Q9UKV0 604-1066 isoform Q9UKV0-7): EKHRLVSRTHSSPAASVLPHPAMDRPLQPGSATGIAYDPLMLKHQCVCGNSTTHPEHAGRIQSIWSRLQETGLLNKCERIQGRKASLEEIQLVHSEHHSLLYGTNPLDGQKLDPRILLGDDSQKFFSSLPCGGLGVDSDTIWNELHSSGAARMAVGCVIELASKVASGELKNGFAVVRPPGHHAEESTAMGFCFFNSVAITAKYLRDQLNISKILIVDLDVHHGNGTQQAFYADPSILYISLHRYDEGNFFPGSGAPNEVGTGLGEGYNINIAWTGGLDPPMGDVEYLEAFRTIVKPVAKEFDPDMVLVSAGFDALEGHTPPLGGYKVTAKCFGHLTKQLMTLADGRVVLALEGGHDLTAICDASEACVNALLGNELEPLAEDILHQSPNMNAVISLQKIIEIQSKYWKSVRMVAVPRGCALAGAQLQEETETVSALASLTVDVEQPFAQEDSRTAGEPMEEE
Protocol: (§1) All HDAC assays were performed using acetylated AMC-labeled peptide substrate: • Substrate for isoforms HDAC1, 2, 3, 4, 5, 6, 7, 9, 10, 11 and HeLa nuclear extract assays: Acetylated fluorogenic peptide from p53 residues 379-382 (RHKKAc) (BioMol. Cat. # KI-104). • Substrate for HDAC8 assays: Acetylated fluorogenic peptide from p53 residues 379-382 (RHKAcKAc) (BioMol. Cat. # KI-178).
(§2) Enzymes: • HDAC1 assay: 75 nM Human HDAC1 (GenBank Accession No. NM_004964): Full length with C-terminal GST tag, MW=79.9 kDa, expressed by baculovirus expression system in Sf9 cells (BioMol. Cat. # SE-456). • HDAC2 assay: 5 nM Human HDAC2 (GenBank Accession No. Q92769): Full length with C-terminal His tag, MW=60 kDa, expressed by baculovirus expression system in Sf9 cells (BioMol. Cat. # SE-500). • HDAC3 assay: 2.3 nM Human HDAC3/NcoR2 (GenBank Accession No. NM_003883 for HDAC3, GenBank Accession No.NM_006312 for NcoR2): Complex of human HDAC3, full length with C-terminal His tag, MW=49.7 kDa, and human NCOR2, N-terminal GST tag, MW=39 kDa, co-expressed in baculovirus expression system (BioMol. Cat. # SE-507). • HDAC4 assay: 266 nM Human HDAC4 (GenBank Accession No. NM_006037): Amino acids 627-1085 with N-terminal GST tag, MW=75.2 kDa, expressed in baculovirus expression system (BioMol, Hamburg, Germany). • HDAC5 assay: 588 nM Human HDAC5 (GenBank Accession No. NM_001015053): Full length with Nterminal GST tag, MW=150 kDa, expressed by baculovirus expression system in Sf9 cells (BioMol, Hamburg, Germany). • HDAC6 assay: 13 nM Human HDAC6 (GenBank Accession No. BC069243): Full length with N-terminal GST tag, MW=159 kDa, expressed by baculovirus expression system in Sf9 cells (BioMol. Cat. # SE-508). • HDAC7 assay: 962 nM Human HDAC7 (GenBank Accession No. AY302468): Amino acids 518-end with N-terminal GST tag, MW=78 kDa, expressed in baculovirus expression system (BioMol, Hamburg, Germany). • HDAC8 assay: 119 nM Human HDAC8 (GenBank Accession No. NM018486): Full length, MW=42 kDa, expressed in an E. coli expression system (BioMol. […]
(§3) The reactions were carried out in a 96-well microplate for fluorometry in a 50 μl reaction volume. […] The reaction was allowed to develop for 45 minutes at 30° C. with 5% CO2; then the fluorescent signal was measured with an excitation wavelength at 360 nm and an emission wavelength at 460 nm in a microplate-reading fluorometer (GeminiXS; Molecular Devices, Sunnyvale, Calif.). […] IC50 was calculated by fitting the experimental data to a dose-response curve. […]

Human HDAC11 = target: T2, Human HDAC11 (Homo sapiens, UniProt Q96DB2); assay: In vitro HDAC11 inhibition, fluorogenic peptide assay; assay type: biochemical; conditions: for IC50: read-out: IC50 (nM) of enzyme activity HDAC11
T2 construct: GST (N); purchased BioMol SE-560
T2 sequence (Q96DB2 1-347): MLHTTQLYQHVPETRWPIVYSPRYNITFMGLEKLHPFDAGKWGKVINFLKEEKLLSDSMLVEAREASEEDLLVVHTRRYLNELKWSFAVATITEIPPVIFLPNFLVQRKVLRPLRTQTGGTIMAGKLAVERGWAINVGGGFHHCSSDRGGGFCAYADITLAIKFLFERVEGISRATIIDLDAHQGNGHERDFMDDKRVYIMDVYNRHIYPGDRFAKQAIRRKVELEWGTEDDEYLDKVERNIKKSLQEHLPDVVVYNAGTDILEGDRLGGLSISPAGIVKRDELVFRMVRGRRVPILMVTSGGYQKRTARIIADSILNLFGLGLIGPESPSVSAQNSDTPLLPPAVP
Protocol: as §1, §2, §3

Row | Selectivity against HDAC6 (IC50 HDACx/IC50 HDAC6) HDAC9 (Human HDAC9; IC50 HDAC9/IC50 HDAC6) | IC50 (Human HDAC9) | Selectivity against HDAC6 (IC50 HDACx/IC50 HDAC6) HDAC11 (Human HDAC11; IC50 HDAC11/IC50 HDAC6) | IC50 (Human HDAC11) | Structure (SMILES)
1 | 38.4 | 768 nM | 34 | 680 nM | COc1ccc(-c2cc(-c3ccccc3)[nH]c2C(=O)NCCCCCC(=O)NO)cc1 [Compound A, N-[6-(hydroxyamino)-6-oxohexyl]-3-(4-methoxyphenyl)-5-phenyl-1H-pyrrole-2-carboxamide, reference compound]
2 | – | 27 nM | – | 18 nM | O=C(CCCCCNC(=O)c1[nH]c(-c2ccc(O)cc2)cc1-c1ccoc1)NO [Example 5, 3-(3-furyl)-N-(5-(hydroxycarbamoyl)pentyl)-5-(4-hydroxy-phenyl)-1H-pyrrole-2-carboxamide]
3 | – | 80 nM | – | 55 nM | O=C(CCCCCNC(=O)c1[nH]c(-c2ccc(O)cc2)cc1-c1ccsc1)NO [Example 6, N-(5-(hydroxycarbamoyl)pentyl)-5-(4-hydroxyphenyl)-3-(3-thienyl)-1H-pyrrole-2-carboxamide]
